Measurements from ChEMBL document CHEMBL3217748, “Chemical synthesis and biological study of 4-carboxymethyl-epiafzelechin acid, an osteoprotective compound from the rhizomes of Drynaria fortunei” (2012).
The source made the active and inactive calls. The rule behind the calls is not given here.

Key:
UMR106 [1] = assay: Induction of rat UMR106 cell proliferation after 24 hrs by MTS assay; assay type: functional, cell-based
[2] = Induction of rat UMR106 cell differentiation at 10^-6 M after 24 hrs by ALP assay relative to control; assay type: functional
[3] = (§1) Induction of rat UMR106 cell differentiation at 10^-8 M after 24 hrs by ALP assay relative to control; assay type: functional
UMR106 [4] = assay: Induction of rat UMR106 cell differentiation after 24 hrs by ALP assay in presence of estrogen receptor antagonist ICI 182,780; assay type: functional, cell-based
[5] = Induction of rat UMR106 cell proliferation assessed as increase in cell number at 10^-10 to 10^-8 M after 24 hrs by MTS assay relative to control; assay type: functional
[6] = Induction of rat UMR106 cell differentiation at 10^-10 M after 24 hrs by ALP assay relative to control; assay type: functional
UMR106 [7] = assay: Induction of rat UMR106 cell proliferation after 24 hrs by MTS assay in presence of estrogen receptor antagonist ICI 182,780; assay type: functional, cell-based
[8] = target: Estrogen receptor beta (Homo sapiens) (UniProt Q92731); assay: Transactivation of human ER-beta transfected in rat UMR106 cells at 10^-14 to 10^-6 M after 24 hrs by dual luciferase reporter gene assay; assay type: cell-based
UMR106 [9] = assay: Induction of rat UMR106 cell proliferation at 10^-8 M after 24 hrs by MTS assay in presence of estrogen receptor antagonist ICI 182,780; assay type: functional, cell-based
UMR106 [10] = assay: as §1; assay type: functional
UMR106 [11] = assay: Induction of rat UMR106 cell proliferation assessed as increase in cell number at 10^-8 M after 24 hrs by MTS assay; assay type: functional, cell-based

Estrogen receptor beta (Homo sapiens), sequence (Q92731 whole entry): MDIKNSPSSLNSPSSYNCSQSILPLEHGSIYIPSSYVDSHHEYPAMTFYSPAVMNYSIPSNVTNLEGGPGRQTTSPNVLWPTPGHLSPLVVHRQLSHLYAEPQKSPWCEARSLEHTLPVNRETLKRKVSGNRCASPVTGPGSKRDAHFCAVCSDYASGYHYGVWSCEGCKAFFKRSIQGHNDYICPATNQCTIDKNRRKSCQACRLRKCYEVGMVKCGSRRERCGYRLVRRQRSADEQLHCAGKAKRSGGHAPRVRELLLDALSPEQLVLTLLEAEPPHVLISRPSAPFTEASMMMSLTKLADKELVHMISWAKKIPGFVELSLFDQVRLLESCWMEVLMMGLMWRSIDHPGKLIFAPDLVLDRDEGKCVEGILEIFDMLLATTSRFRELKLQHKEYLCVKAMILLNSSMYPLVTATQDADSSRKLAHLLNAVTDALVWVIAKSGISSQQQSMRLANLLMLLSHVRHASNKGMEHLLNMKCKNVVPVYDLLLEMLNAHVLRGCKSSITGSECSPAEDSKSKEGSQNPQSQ

Q: For O=C(O)C[C@H]1c2c(O)cc(O)cc2O[C@H](c2ccc(O)cc2)[C@@H]1O, which Activity (UMR106 [1]) is on record?
A: Its Activity is “Dose-dependent effect”.

Q: And the Activity [2]?
A: The Activity was 18%.

Q: What about the Activity [3] of the same molecule?
A: Its Activity is 14%.

Q: What about the Activity (UMR106 [4]) of the same molecule?
A: Its Activity is “Active”.

Q: And the “fold change (FC)” value [5]?
A: Its value is 1.4.

Q: And the Activity [6]?
A: The Activity was 18%.

Q: And the Activity (UMR106 [7])?
A: Its Activity is “inactive”.

Q: And the Activity [8]?
A: Its Activity is “inactive”.

Q: Which Activity (UMR106 [1]) does the source give for O=C1C[C@H]2c3c(O)cc(O)cc3O[C@H](c3ccc(O)cc3)[C@H]2O1 here?
A: The Activity was “Dose-dependent effect”.

Q: What about the Activity (UMR106 [4]) of the same molecule?
A: Its Activity is “Active”.

Q: And the Activity [6]?
A: Its Activity is 10%.

Q: And the Activity (UMR106 [7])?
A: Its Activity is “inactive”.

Q: What about the Activity [8] of the same molecule?
A: Its Activity is “inactive”.

Q: For C[C@]12CC[C@@H]3c4ccc(O)cc4CC[C@H]3[C@@H]1CC[C@@H]2O, which Activity (UMR106 [1]) is on record?
A: Its Activity is “Dose-dependent effect”.

Q: And the Activity (UMR106 [9])?
A: Its Activity is “inactive”.

Q: And the Activity (UMR106 [10])?
A: Its Activity is “Active”.

Q: And the Activity (UMR106 [4])?
A: The Activity was “Active”.

Q: And the Activity (UMR106 [11])?
A: The Activity was “Active”.
